Among the data in ChEMBL document CHEMBL2062500, “Anti-inflammatory sesquiterpene lactones from the flower of Vernonia cinerea” (Bioorg Med Chem Lett, 2012) are IC50, inhibition and viability values, retold here.

Active and inactive are the calls of the source. No cut-off for these calls is given here.

A word on the IC50: it is the point on the concentration scale where inhibition reaches its midpoint. For orientation: inhibition means the relative decrease from the control value, in per cent.

The nature of data set [1]: (§1) Inhibition of TNFalpha-induced NF-kappaB activity expressed in human HEK 293 cells after 6 hrs by luciferase reporter gene assay. Format: cell-based. The settings on record: HEK293, 6 h. In general terms: A reporter such as luciferase makes a cellular process visible.
For data set [2], the system named is RAW264.7. The data set can be described thus: Antiinflammatory activity against LPS-induced NO production in mouse RAW264.7 cells assessed as reduction in nitrite level at 50 uM preincubated for 15 mins prior to LPS treatment by Griess method. It is filed as functional. A general note: Griess reagent forms a coloured azo dye with nitrite.
Data set [3] in a line: Cytotoxicity in mouse RAW264.7 cells assessed as cell survival at 50 uM. It is filed as cell-based. The conditions noted are these: read-out: Survival.
Data set [4] is described as follows: Cytotoxicity in human HEK293 cells assessed as survival at 50 uM. The settings on record: read-out: Survival. It is filed as cell-based.
Data set [5] relates to RAW264.7. The experiment in a line: Antiinflammatory activity against LPS-induced NO production in mouse RAW264.7 cells assessed as reduction in nitrite level preincubated for 15 mins prior to LPS treatment by Griess method. It is filed as functional, cell-based.
In data set [6] the test system is HEK293. The experiment in a line: Inhibition of TNFalpha-induced NF-kappaB activity expressed in human HEK 293 cells at 50 uM after 6 hrs by luciferase reporter gene assay. Format: cell-based.
The subject of data set [7] is HEK293. The data set is described as §1. Format: cell-based.

Regarding `Cc1ccc(S(=O)(=O)N[C@@H](Cc2ccccc2)C(=O)CCl)cc1` [TPCK], the midpoint of inhibition in data set [1], the IC50, lay at 3.8 µM.

Take `C/C=C(\C)C(=O)O[C@H]1C[C@@H](C)[C@]2(O)CC[C@](C)(/C=C3/OC(=O)C(CO)=C31)O2` (relative stereo): the inhibition at 50 µM in data set [2] was determined as 99.8%. Further, the values for the viability at 50 µM in data set [3] and in data set [4] were 32.2% and 87.6%, respectively. Also, the values for the IC50 in data set [1] and in data set [5] were 3.1 µM and 5.7 µM, respectively. The compound further registered an inhibition in data set [6] of 98.6%.

Consider `C=C(C)C(=O)O[C@H]1C[C@@H](C)[C@]2(O)CC[C@](C)(/C=C3/OC(=O)C(COC(C)=O)=C31)O2`, for which, in data set [2], the inhibition at 50 µM was 99.2%. Besides, the viability at 50 µM in data set [3] amounted to 31.1%; in data set [4], 95.1%. Further, the values for the IC50 in data set [1] and in data set [5] were 5.2 µM and 6.6 µM, respectively. Moreover, the inhibition in data set [6] came to 95.8%.

For `CNC(=N)NCCC[C@H](N)C(=O)O`, the IC50 in data set [5] is 25.1 µM.

Turning to `CO[C@]12CC[C@](C)(/C=C3/OC(=O)C(CO)=C3[C@@H](O)C[C@H]1C)O2`, the inhibition at 50 µM in data set [2] is 84.2%. Moreover, the viability at 50 µM in data set [3] is 134%; in data set [4] it was 91.9%. Besides, the inhibition entry in data set [7] was “inactive”. Also, the IC50 in data set [5] turned out to be 28.1 µM. In data set [6], the inhibition is 33.4%.

For the compound `C=C(C)C(=O)O[C@H]1C[C@@H](C)[C@]2(OC)CC[C@](C)(/C=C3/OC(=O)C(COC(C)=O)=C31)O2`, the inhibition at 50 µM in data set [2] was determined as 98.8%. Further, the viability at 50 µM in data set [3] was determined as 6.3%; in data set [4], 39.1%. Moreover, the IC50 in data set [1] turned out to be 13.6 µM; in data set [5], 1.5 µM. In data set [6], the inhibition was 94.2%.

Take `CC(=O)OCC1=C2/C(=C\[C@@]3(C)CC[C@](O)(O3)[C@H](C)C[C@@H]2O)OC1=O`: in data set [2], the inhibition at 50 µM turned out to be 99.3%. Besides, the viability at 50 µM in data set [3] came out at 18%; in data set [4], 55%. In addition, the figures for the IC50 in data set [1] and in data set [5] were 10.2 µM and 2.7 µM, respectively. In data set [6], this compound registered an inhibition of 90.3%.

For `C/C=C(\C)C(=O)O[C@H]1C[C@@H](C)[C@]2(OC)CC[C@](C)(/C=C3/OC(=O)C(COC(C)=O)=C31)O2`, in data set [2], the inhibition at 50 µM was 99%. Moreover, the viability at 50 µM is 5.4% in data set [3] and 16.5% in data set [4]. The half-inhibitory concentration (IC50) came out at 12.8 µM in data set [1] and 1.2 µM in data set [5]. In data set [6], the inhibition stood at 97.6%.

Regarding `C[C@@H]1C[C@H](O)C2=C(CO)C(=O)O/C2=C/[C@@]2(C)CC[C@]1(O)O2`, the inhibition at 50 µM in data set [2] stood at 82.6%. The results for the viability at 50 µM in data set [3] and in data set [4] were 121% and 100%, respectively. Besides, the results for the IC50 in data set [1] and in data set [5] were 1.9 µM and 24.7 µM, respectively. In addition, in data set [6], the inhibition was 65.6%.

As to `C/C=C(\C)C(=O)O[C@H]1C[C@@H](C)[C@]2(O)CC[C@](C)(/C=C3/OC(=O)C(COC(C)=O)=C31)O2`, the inhibition at 50 µM in data set [2] worked out at 98%. In addition, the values for the viability at 50 µM in data set [3] and in data set [4] were 31.1% and 102%, respectively. Also, the IC50 was determined as 0.6 µM in data set [1] and 2 µM in data set [5]. The compound also displayed an inhibition in data set [6] of 99.6%.

Take `C/C=C(\C)C(=O)O[C@H]1C[C@@H](C)[C@]2(OC)CC[C@](C)(/C=C3/OC(=O)C(CO)=C31)O2`: the inhibition at 50 µM in data set [2] stood at 99.8%. Further, the viability at 50 µM in data set [3] stood at 15.6%; in data set [4], 9.3%. In addition, the IC50 in data set [1] is 1.6 µM; in data set [5] it was 2.4 µM. Moreover, the inhibition in data set [6] came out at 94.1%.

As to `Cc1ccc(S(=O)(=O)/C=C/C#N)cc1`, 2 µM corresponded to half-maximal inhibition in data set [1] (IC50).
